Reference: ChEMBL document CHEMBL4765382, “Novel anilide and benzylamide derivatives of arylpiperazinylalkanoic acids as 5-HT/5-HT receptor antagonists and phosphodiesterase 4/7 inhibitors with procognitive and antidepressant activity” (Eur J Med Chem, 2020)
Calls of active or inactive are those of the source. The calls are words filed in the database; no cut-off is given here.

What was measured:
[1] = target: T1, 5-hydroxytryptamine receptor 7 (Homo sapiens, UniProt P34969); assay: Binding affinity to 5HT7 receptor (unknown origin)
T1 sequence (P34969 whole entry): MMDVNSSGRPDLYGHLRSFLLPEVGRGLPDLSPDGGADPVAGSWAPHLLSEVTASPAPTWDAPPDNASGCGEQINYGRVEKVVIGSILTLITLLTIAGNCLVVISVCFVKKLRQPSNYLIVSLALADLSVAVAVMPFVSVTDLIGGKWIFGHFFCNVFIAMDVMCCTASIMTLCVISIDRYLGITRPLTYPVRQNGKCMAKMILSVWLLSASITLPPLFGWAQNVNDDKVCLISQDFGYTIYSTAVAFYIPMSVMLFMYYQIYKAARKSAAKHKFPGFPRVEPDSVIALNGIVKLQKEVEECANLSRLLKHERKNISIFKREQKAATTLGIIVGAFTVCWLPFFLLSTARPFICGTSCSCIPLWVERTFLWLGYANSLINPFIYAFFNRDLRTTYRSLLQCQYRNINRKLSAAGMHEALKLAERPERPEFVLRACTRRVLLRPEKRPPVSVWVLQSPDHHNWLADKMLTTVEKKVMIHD

[2] = target: T2, 5-hydroxytryptamine receptor 1A (Homo sapiens, UniProt P08908); assay: Binding affinity to 5HT-1A receptor (unknown origin)
T2 sequence (P08908 whole entry): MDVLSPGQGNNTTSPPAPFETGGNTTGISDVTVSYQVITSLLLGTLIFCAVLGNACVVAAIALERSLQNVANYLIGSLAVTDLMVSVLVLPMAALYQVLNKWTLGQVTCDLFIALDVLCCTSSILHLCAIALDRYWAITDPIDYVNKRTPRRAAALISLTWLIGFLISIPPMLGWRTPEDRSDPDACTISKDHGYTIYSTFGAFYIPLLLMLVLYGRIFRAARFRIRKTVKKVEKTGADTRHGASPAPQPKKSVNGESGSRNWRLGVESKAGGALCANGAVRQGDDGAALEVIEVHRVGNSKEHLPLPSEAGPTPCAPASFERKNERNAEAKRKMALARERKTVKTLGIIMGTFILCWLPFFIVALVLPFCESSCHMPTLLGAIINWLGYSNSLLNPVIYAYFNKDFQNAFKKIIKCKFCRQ

[3] = target: T1, 5-hydroxytryptamine receptor 7; assay: Displacement of [3H]-5-CT from human 5HT7 receptor expressed in HEK293 cells measured after 1 hr by microbeta counting method; format: cell-based
[4] = target: T2, 5-hydroxytryptamine receptor 1A; assay: Displacement of [3H]8-OH-DPAT from human 5HT1A receptor expressed in HEK293 cells measured after 1 hr by microbeta counting method; format: cell-based
[5] = Effective permeability of the compound at 200 uM incubated for 5 hrs by PAMPA based UPLC/MS analysis; format: ADME; conditions: read-out: Peff
[6] = target: 3',5'-cyclic-AMP phosphodiesterase 4B (Homo sapiens, UniProt Q07343); assay: Inhibition of recombinant human PDE4B expressed in Sf9 cells measured after 10 mins by luminescence based assay
Sequence of 3',5'-cyclic-AMP phosphodiesterase 4B (Q07343 whole entry): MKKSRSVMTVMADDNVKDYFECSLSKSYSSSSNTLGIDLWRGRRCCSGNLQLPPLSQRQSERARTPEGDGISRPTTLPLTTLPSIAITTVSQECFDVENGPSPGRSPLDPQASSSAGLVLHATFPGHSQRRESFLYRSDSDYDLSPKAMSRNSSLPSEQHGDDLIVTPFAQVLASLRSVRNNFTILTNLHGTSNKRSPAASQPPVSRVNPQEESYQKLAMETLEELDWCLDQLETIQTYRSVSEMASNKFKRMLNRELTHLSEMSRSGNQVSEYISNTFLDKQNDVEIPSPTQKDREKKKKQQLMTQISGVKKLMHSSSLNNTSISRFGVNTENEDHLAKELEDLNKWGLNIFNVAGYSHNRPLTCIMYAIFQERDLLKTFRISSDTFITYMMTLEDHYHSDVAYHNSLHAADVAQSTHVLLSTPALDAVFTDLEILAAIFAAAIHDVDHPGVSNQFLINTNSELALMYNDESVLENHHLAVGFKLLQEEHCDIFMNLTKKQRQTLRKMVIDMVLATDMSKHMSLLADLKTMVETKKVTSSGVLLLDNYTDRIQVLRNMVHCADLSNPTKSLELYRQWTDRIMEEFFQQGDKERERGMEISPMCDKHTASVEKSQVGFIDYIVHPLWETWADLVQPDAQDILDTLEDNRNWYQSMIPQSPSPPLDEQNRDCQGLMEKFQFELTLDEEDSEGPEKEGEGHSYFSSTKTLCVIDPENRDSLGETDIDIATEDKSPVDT

[7] = target: High affinity 3',5'-cyclic-AMP phosphodiesterase 7A (Homo sapiens, UniProt Q13946); assay: Inhibition of recombinant human PDE7A expressed in Sf9 cells measured after 10 mins by luminescence based assay
Sequence of High affinity 3',5'-cyclic-AMP phosphodiesterase 7A (Q13946 whole entry): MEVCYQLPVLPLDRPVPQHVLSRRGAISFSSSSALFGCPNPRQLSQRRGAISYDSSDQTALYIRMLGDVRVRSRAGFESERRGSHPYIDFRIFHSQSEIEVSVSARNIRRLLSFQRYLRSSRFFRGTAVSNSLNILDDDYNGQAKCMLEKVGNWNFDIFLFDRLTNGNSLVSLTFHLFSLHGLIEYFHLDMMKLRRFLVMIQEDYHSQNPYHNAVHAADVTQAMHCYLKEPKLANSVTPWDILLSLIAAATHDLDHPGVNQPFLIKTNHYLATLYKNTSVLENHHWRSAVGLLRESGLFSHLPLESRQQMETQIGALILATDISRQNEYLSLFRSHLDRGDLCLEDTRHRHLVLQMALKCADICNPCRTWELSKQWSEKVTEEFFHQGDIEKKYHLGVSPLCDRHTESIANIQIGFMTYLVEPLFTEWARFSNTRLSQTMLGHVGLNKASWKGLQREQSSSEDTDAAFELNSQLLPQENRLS

[8] = Metabolic stability of the compound in rat liver microsomes assessed as parent compound remaining at 50 uM preincubated for 5 mins followed by incubation with NADPH regenerating system for 120 mins by LC/MS analysis; format: ADME, Microsome; conditions: read-out: Stabilty
[9] = Toxicity in Wistar rat assessed as total distance travelled at 20 mg/kg, ip measured after 30 mins by open field test (reference value: 1897.3 +/-98.6 cm); format: organism-based; conditions: in vivo, 0.5 h
[10] = Toxicity in Wistar rat assessed as total ambulations at 20 mg/kg, ip measured after 30 mins by open field test; format: organism-based; conditions: in vivo, 0.5 h
[11] = tested on: Rattus norvegicus; assay: Antidepressant-like activity in Wistar rat assessed as reduction in immobility time at 20 mg/kg, ip measured after 30 mins by Forced swimming test; format: functional; conditions: 0.5 h
[12] = Toxicity in Wistar rat assessed as rearings at 20 mg/kg, ip measured after 30 mins by open field test; format: organism-based; conditions: in vivo, 0.5 h
[13] = target: T1, 5-hydroxytryptamine receptor 7; assay: Antagonist activity at recombinant human 5HT7 receptor expressed in CHO-K1 cells co-transfected with beta-lactamase reporter gene assessed as inhibition of serotonin-induced cAMP accumulation measured after 1 hr by LANCE TR-FRET assay; format: functional, cell-based; conditions: filed as antagonist
[14] = target: T1, 5-hydroxytryptamine receptor 7; assay: Agonist activity at recombinant human 5HT7 receptor expressed in CHO-K1 cells co-transfected with beta-lactamase reporter gene assessed as cAMP accumulation measured after 1 hr by LANCE TR-FRET assay; format: functional, cell-based
[15] = Toxicity in Wistar rat assessed as rearings at 3 to 10 mg/kg, ip measured after 60 mins by open field test; format: organism-based; conditions: in vivo, 1 h
[16] = Toxicity in Wistar rat assessed as total ambulations at 3 to 10 mg/kg, ip measured after 60 mins by open field test; format: organism-based; conditions: in vivo, 1 h

Row | Structure (SMILES) | Ki [3] [nM] | Ki [4] [nM] | other results
1 | O=S(=O)(NCCCCN1CCN(c2nsc3ccccc23)CC1)c1c[nH]c2ncccc12 | – | – | Ki [1]: 93 nM; Ki [2]: 78 nM
2 | COc1ccccc1N1CCN(CCCC(=O)Nc2ccc(C(C)C)cc2)CC1 | 954 | 150 | –
3 | CCC(C)c1ccc(NC(=O)CCCN2CCN(c3ccccc3OC)CC2)cc1 (centres undefined) | 354 | 37 | –
4 | COc1ccccc1N1CCN(CCCCCC(=O)Nc2ccccc2O)CC1 | 254 | 95 | –
5 | CCn1cc(C(=O)O)c(=O)c2cc(F)c(N3CCNCC3)cc21 [NORFLOXACIN] | – | – | Papp at 5 h, 200 µM [5]: 0.6 ×10⁻⁶ cm/s
6 | COc1ccccc1N1CCN(CCCCC(=O)Nc2ccccc2O)CC1 | 300 | 31 | –
7 | COc1ccccc1N1CCN(CCCC(=O)Nc2cc(C(C)(C)C)ccc2O)CC1 | 328 | – | IC50 [6]: 69000 nM; IC50 [7]: 57000 nM
8 | COc1ccccc1N1CCN(CCCCCC(=O)Nc2ccc(C(=O)OC(C)(C)C)cc2)CC1 | 799 | 125 | –
9 | COc1ccccc1N1CCN(CCCCCC(=O)NCc2ccccc2O)CC1 | 289 | 70 | –
10 | COc1ccccc1N1CCN(CCCCCC(=O)Nc2ccc(C(C)C)cc2)CC1 | 434 | 43 | –
11 | COc1ccccc1N1CCN(CCCCC(=O)Nc2ccc(C(C)(C)C)cc2)CC1 | 496 | 21 | IC50 [6]: 138000 nM; IC50 [7]: > 200000 nM
12 | COc1ccccc1N1CCN(CCCC(=O)NCc2ccccc2O)CC1 | 319 | – | –
13 | COc1ccccc1N1CCN(CCCC(=O)Nc2ccc(C(C)(C)C)cc2)CC1 | 1200 | – | IC50 [6]: 96000 nM; IC50 [7]: 27000 nM
14 | COc1ccccc1N1CCN(CCCCCC(=O)Nc2ccc(C(C)(C)C)cc2)CC1 | 514 | – | –
15 | COc1ccccc1N1CCN(CCCC(=O)Nc2cccc(C(C)(C)C)c2)CC1 | 130 | 224 | –
16 | COc1ccccc1N1CCN(CCCCC(=O)Nc2cccc(C(C)C)c2)CC1.Cl | 151 | – | Papp at 5 h, 200 µM [5]: 8.6 ×10⁻⁶ cm/s; IC50 [6]: 88100 nM; IC50 [7]: > 200000 nM; remaining at 2 h, 50 µM [8]: 6.5%
17 | COc1ccccc1N1CCN(CCCCC(=O)Nc2cccc(C(=O)OC(C)(C)C)c2)CC1 | 927 | – | –
18 | COc1ccccc1N1CCN(CCCC(=O)Nc2ccccc2O)CC1 | 471 | 405 | –

Row | Structure (SMILES) | Ki [3] [nM] | Ki [4] [nM] | other results
19 | COc1ccccc1N1CCN(CCCCCC(=O)Nc2cc(C(C)(C)C)ccc2O)CC1 | 154 | – | –
20 | CCC(C)c1ccc(NC(=O)CCCCN2CCN(c3ccccc3OC)CC2)cc1 (centres undefined) | 323 | 14 | IC50 [6]: 169000 nM; IC50 [7]: 126000 nM
21 | COc1ccccc1N1CCN(CCCCC(=O)Nc2ccccc2C(N)=O)CC1 | 1870 | 82 | –
22 | CN(C)CCC[C@@]1(c2ccc(F)cc2)OCc2cc(C#N)ccc21 [ESCITALOPRAM] | – | – | Activity [9]: 2058.5 cm; Activity [10]: Non-Toxic; inhibition in vivo at 20 mg/kg [11]: 49%; Activity [12]: Non-Toxic
23 | COc1ccccc1N1CCN(CCCC(=O)Nc2ccc(C(=O)OC(C)(C)C)cc2)CC1 | 3280 | 287 | –
24 | COc1ccccc1CNC(=O)CCCCCN1CCN(c2ccccc2OC)CC1 | 515 | 64 | –
25 | COc1ccccc1N1CCN(CCCCC(=O)NCc2ccc(C(C)(C)C)cc2)CC1 | 391 | 138 | –
26 | COc1ccccc1N1CCN(CCCCCC(=O)Nc2cccc(C(C)C)c2)CC1 | 141 | 34 | –
27 | COc1ccccc1N1CCN(CCCCC(=O)Nc2cc(C(C)(C)C)ccc2O)CC1 | 159 | 61 | IC50 [6]: 36500 nM; IC50 [7]: > 200000 nM
28 | COc1ccccc1N1CCN(CCCCC(=O)Nc2cccc(C(C)(C)C)c2)CC1.Cl | 75 | 16 | Papp at 5 h, 200 µM [5]: 4.8 ×10⁻⁶ cm/s; Kb [13]: 54 nM; IC50 [6]: 130000 nM; IC50 [7]: > 200000 nM; remaining at 2 h, 50 µM [8]: 23.8%; Activity [14]: inactive
29 | COc1ccccc1N1CCN(CCCCC(=O)Nc2ccc(C(C)C)cc2)CC1.Cl | – | – | Papp at 5 h, 200 µM [5]: 10.5 ×10⁻⁶ cm/s; Activity [15]: Non-Toxic; IC50 [6]: 80400 nM; Activity [16]: Non-Toxic; IC50 [7]: 151000 nM; remaining at 2 h, 50 µM [8]: 90.1%
30 | COc1ccccc1CNC(=O)CCCCN1CCN(c2ccccc2OC)CC1 | 366 | 82 | –
31 | COc1ccccc1N1CCN(CCCCCC(=O)Nc2cccc(C(C)(C)C)c2)CC1 | 190 | 53 | –
32 | COc1ccccc1N1CCN(CCCCC(=O)NCc2ccccc2O)CC1 | 343 | – | –
33 | CCC(C)c1ccc(NC(=O)CCCCCN2CCN(c3ccccc3OC)CC2)cc1 (centres undefined) | 260 | 69 | –
34 | COc1ccccc1N1CCN(CCCC(=O)Nc2ccccc2C(N)=O)CC1 | 1140 | 526 | –
35 | COc1ccccc1N1CCN(CCCC(=O)Nc2cccc(C(C)C)c2)CC1 | 157 | 187 | –
36 | COc1ccccc1CNC(=O)CCCN1CCN(c2ccccc2OC)CC1 | 869 | 292 | –
